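Method: 48-hour compound exposure of cells in 96-well plates, five concentrations, linear interpolation of endpoints. The concentration for 50% growth inhibition is given as GI50. Definition used: TGI = concentration required for complete inhibition of growth.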
What was measured:
Test in all cases: inhibition of tumour cell growth, NCI panel, 48 h
NCI-H23 lung = system: NCI-H23 lung
786-0 renal = system: 786-0 renal
SK-OV-3 ovarian = system: SK-OV-3 ovarian
NCI-H522 lung = system: NCI-H522 lung
SK-MEL-2 melanoma = system: SK-MEL-2 melanoma
HT29 colon = system: HT29 colon
SNB-75 CNS = system: SNB-75 CNS
SW-620 colon = system: SW-620 colon
SF-539 CNS = system: SF-539 CNS
KM12 colon = system: KM12 colon
HOP-62 NSCLC = system: HOP-62 NSCLC
MALME-3M melanoma = system: MALME-3M melanoma
SF-295 CNS = system: SF-295 CNS
ACHN renal = system: ACHN renal
PC-3 prostate = system: PC-3 prostate
IGROV1 ovarian = system: IGROV1 ovarian
UACC-257 melanoma = system: UACC-257 melanoma
UO-31 renal = system: UO-31 renal
DU-145 prostate = system: DU-145 prostate
HCT-15 colon = system: HCT-15 colon
HCC-2998 colon = system: HCC-2998 colon
NCI-H460 lung = system: NCI-H460 lung
NCI-H226 lung = system: NCI-H226 lung
SN12C renal = system: SN12C renal
U251 CNS = system: U251 CNS
SF-268 CNS = system: SF-268 CNS
TK-10 renal = system: TK-10 renal
SNB-19 CNS = system: SNB-19 CNS
BT-549 breast = system: BT-549 breast
SK-MEL-5 melanoma = system: SK-MEL-5 melanoma
OVCAR-5 ovarian = system: OVCAR-5 ovarian
A498 renal = system: A498 renal
CAKI-1 renal = system: CAKI-1 renal
COLO 205 colon = system: COLO 205 colon
HCT-116 colon = system: HCT-116 colon
HS 578T breast = system: HS 578T breast
HL-60(TB) leukemia = system: HL-60(TB) leukemia
SR leukemia = system: SR leukemia
EKVX NSCLC = system: EKVX NSCLC
CCRF-CEM leukemia = system: CCRF-CEM leukemia
SK-MEL-28 melanoma = system: SK-MEL-28 melanoma
NCI/ADR-RES ovarian = system: NCI/ADR-RES ovarian
RXF 393 renal = system: RXF 393 renal
RPMI-8226 leukemia = system: RPMI-8226 leukemia
HOP-92 NSCLC = system: HOP-92 NSCLC
UACC-62 melanoma = system: UACC-62 melanoma
A549 NSCLC = system: A549 NSCLC
MOLT-4 leukemia = system: MOLT-4 leukemia
OVCAR-4 ovarian = system: OVCAR-4 ovarian
MDA-MB-435 = system: MDA-MB-435
M14 melanoma = system: M14 melanoma
T-47D breast = system: T-47D breast
MDA-MB-231 breast = system: MDA-MB-231 breast
K-562 leukemia = system: K-562 leukemia
OVCAR-8 ovarian = system: OVCAR-8 ovarian
MCF7 breast = system: MCF7 breast

## Cn1ccnc1C(=O)/C=C/C=C/c1ccc(C(=O)Nc2ccc(F)cc2)cc1
NCI-H23 lung
  GI50: 1040 nM
  TGI: 4460 nM
786-0 renal
  GI50: 778 nM
  TGI: 1880 nM
SK-OV-3 ovarian
  GI50: 11000 nM
  TGI: > 33300 nM
NCI-H522 lung
  GI50: 1640 nM
  TGI: 16800 nM
SK-MEL-2 melanoma
  GI50: 17900 nM
  TGI: > 33300 nM
HT29 colon
  GI50: 890 nM
  TGI: 2490 nM
SNB-75 CNS
  GI50: 1180 nM
  TGI: 29300 nM
SW-620 colon
  GI50: 796 nM
  TGI: 2040 nM
SF-539 CNS
  GI50: 858 nM
  TGI: 2440 nM
KM12 colon
  GI50: 6790 nM
  TGI: > 33300 nM
HOP-62 NSCLC
  GI50: 8470 nM
  TGI: > 33300 nM
MALME-3M melanoma
  GI50: 1290 nM
  TGI: 6580 nM
SF-295 CNS
  GI50: 9490 nM
  TGI: > 33300 nM
ACHN renal
  GI50: 1150 nM
  TGI: 5540 nM
PC-3 prostate
  GI50: 1260 nM
  TGI: > 33300 nM
IGROV1 ovarian
  GI50: 846 nM
  TGI: 2610 nM
UACC-257 melanoma
  GI50: 14100 nM
  TGI: > 33300 nM
UO-31 renal
  GI50: 1420 nM
  TGI: 7160 nM
DU-145 prostate
  GI50: 1520 nM
  TGI: > 33300 nM
HCT-15 colon
  GI50: 568 nM
  TGI: 1250 nM
HCC-2998 colon
  GI50: 2610 nM
  TGI: 8770 nM
NCI-H460 lung
  GI50: 1940 nM
  TGI: 10600 nM
NCI-H226 lung
  GI50: 2180 nM
  TGI: 12800 nM
SN12C renal
  GI50: 1540 nM
  TGI: 14200 nM
U251 CNS
  GI50: 911 nM
  TGI: 8200 nM
SF-268 CNS
  GI50: 1540 nM
  TGI: > 33300 nM
TK-10 renal
  GI50: 27700 nM
  TGI: > 33300 nM
SNB-19 CNS
  GI50: 2050 nM
  TGI: > 33300 nM
BT-549 breast
  GI50: 1320 nM
  TGI: 15100 nM
SK-MEL-5 melanoma
  GI50: 2650 nM
  TGI: 12000 nM
OVCAR-5 ovarian
  GI50: 1730 nM
  TGI: 16800 nM
A498 renal
  GI50: 2600 nM
  TGI: 26900 nM
CAKI-1 renal
  GI50: 3220 nM
  TGI: > 33300 nM
COLO 205 colon
  GI50: 5610 nM
  TGI: > 33300 nM
HCT-116 colon
  GI50: 666 nM
  TGI: 1570 nM
HS 578T breast
  GI50: 2270 nM
  TGI: > 33300 nM
HL-60(TB) leukemia
  GI50: 956 nM
  TGI: 7200 nM
SR leukemia
  GI50: 468 nM
  TGI: > 33300 nM
EKVX NSCLC
  GI50: 1260 nM
  TGI: 12100 nM
CCRF-CEM leukemia
  GI50: 731 nM
  TGI: > 33300 nM
SK-MEL-28 melanoma
  GI50: 2410 nM
  TGI: > 33300 nM
NCI/ADR-RES ovarian
  GI50: 2020 nM
  TGI: > 33300 nM
RXF 393 renal
  GI50: 711 nM
  TGI: 1920 nM
RPMI-8226 leukemia
  GI50: 699 nM
  TGI: 2270 nM
HOP-92 NSCLC
  GI50: 3140 nM
  TGI: 20500 nM
UACC-62 melanoma
  GI50: 3480 nM
  TGI: 15400 nM
A549 NSCLC
  GI50: 5360 nM
  TGI: > 33300 nM
MOLT-4 leukemia
  GI50: 1020 nM
  TGI: > 33300 nM
OVCAR-4 ovarian
  GI50: 6060 nM
  TGI: > 33300 nM
MDA-MB-435
  GI50: 1070 nM
  TGI: 4450 nM
M14 melanoma
  GI50: 1930 nM
  TGI: 28700 nM
T-47D breast
  GI50: 2010 nM
  TGI: > 33300 nM
MDA-MB-231 breast
  GI50: 1410 nM
  TGI: > 33300 nM
K-562 leukemia
  GI50: 828 nM
  TGI: > 33300 nM
OVCAR-8 ovarian
  GI50: 1200 nM
  TGI: > 33300 nM
MCF7 breast
  GI50: 917 nM
  TGI: > 33300 nM
